Data: patent US20210038607A1, “OXADIAZOLYLTHIOPHENE DERIVATIVES USEFUL AS HISTONE DEACETYLASE INHIBITORS” (Karus Therapeutics Limited, priority 2018, published 2021)

What was measured:
Human HDAC9 = target: T1, Human HDAC9 (Homo sapiens, UniProt Q9UKV0); test: HDAC9 biochemical assay, class IIa-specific substrate; settings: read-out: HDAC Isoform IC50 (nM) 9
T1 construct: amino acids 604-1066 with C-terminal His tag; His (C); host or cells: baculovirus expression system
In short: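 HDAC9 residues 604-1066 (C-terminal His tag, baculovirus-expressed) at 0.06 ng/ul with 50 μM class IIa substrate Boc-Lys(trifluoroacetyl)-AMC in Tris-HCl pH 8.0 buffer with BSA and 1% DMSO. 30 min at room temperature, then developer added; fluorescence read at 360/460 nm Ex/Em.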

Human HDAC7 = target: T2, Human HDAC7 (Homo sapiens, UniProt Q8WUI4); test: HDAC7 biochemical assay, class IIa-specific substrate; settings: read-out: HDAC Isoform IC50 (nM) 7
T2 construct: (a.a. 518-end) with N-terminal GST tag; GST (N); host or cells: baculovirus expression system
T2 sequence (Q8WUI4 518-952 limits assumed): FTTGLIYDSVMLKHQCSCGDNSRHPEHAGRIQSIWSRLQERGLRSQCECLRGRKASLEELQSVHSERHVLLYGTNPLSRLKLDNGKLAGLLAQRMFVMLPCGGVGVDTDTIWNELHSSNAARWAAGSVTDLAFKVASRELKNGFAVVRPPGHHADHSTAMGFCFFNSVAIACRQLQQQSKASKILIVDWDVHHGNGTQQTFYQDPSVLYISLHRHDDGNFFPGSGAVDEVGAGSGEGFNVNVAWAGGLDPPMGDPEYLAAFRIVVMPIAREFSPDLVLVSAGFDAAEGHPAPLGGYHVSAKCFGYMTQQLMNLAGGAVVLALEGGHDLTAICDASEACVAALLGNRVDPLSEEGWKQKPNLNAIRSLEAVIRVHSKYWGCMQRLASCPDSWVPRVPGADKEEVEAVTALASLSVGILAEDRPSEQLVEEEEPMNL
In short: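 GST-tagged HDAC7 (a.a. 518-end, baculovirus-expressed) at 0.001 ng/ul with 50 μM Boc-Lys(trifluoroacetyl)-AMC substrate, 30 min at room temperature in pH 8.0 Tris buffer with BSA, 1% DMSO final. Developer then releases AMC; fluorescence read at 360/460 nm.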

Human HDAC1 = target: T3, Human HDAC1 (Homo sapiens, UniProt Q13547); test: HDAC1 biochemical assay, AMC-labeled peptide substrate; settings: read-out: HDAC Isoform IC50 (nM) 1
T3 construct: full length with C-terminal His-tag and C-terminal FLAG-tag; His (C); FLAG (C); host or cells: baculovirus expression system
In short: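 Baculovirus-expressed full-length human HDAC1 with His and FLAG tags, 0.3 ng/ul, incubated 1 h at 30° C with compound and 50 μM RHKK(Ac)AMC in Tris pH 8.0 buffer with BSA and 1% DMSO. Developer then releases AMC from deacetylated substrate; fluorescence read at 360/460 nm.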

Human HDAC10 = target: T4, Human HDAC10 (Homo sapiens, UniProt Q969S8); test: HDAC10 biochemical assay, AMC-labeled peptide substrate; settings: read-out: HDAC Isoform IC50 (nM) 10
T4 construct: Human HDAC10 (a.a. 1-481); GST (N); His (C); host or cells: baculovirus expression system
T4 sequence (Q969S8 1-481): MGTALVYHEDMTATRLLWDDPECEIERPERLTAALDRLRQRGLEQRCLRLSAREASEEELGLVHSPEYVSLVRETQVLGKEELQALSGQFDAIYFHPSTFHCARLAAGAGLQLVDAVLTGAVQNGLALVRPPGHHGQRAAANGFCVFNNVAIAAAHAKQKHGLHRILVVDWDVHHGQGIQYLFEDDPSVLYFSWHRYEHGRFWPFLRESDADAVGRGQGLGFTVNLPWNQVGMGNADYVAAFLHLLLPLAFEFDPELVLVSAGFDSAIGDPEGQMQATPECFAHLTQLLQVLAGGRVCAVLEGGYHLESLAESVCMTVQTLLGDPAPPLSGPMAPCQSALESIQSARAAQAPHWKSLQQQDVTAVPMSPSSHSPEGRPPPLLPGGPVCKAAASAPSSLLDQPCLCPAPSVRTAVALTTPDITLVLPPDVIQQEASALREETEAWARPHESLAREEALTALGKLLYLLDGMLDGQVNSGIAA
Description: (§1) Activity against all zinc-dependent HDACs 1 to 11 was assessed by using an acetylated AMC-labeled peptide substrate. The substrate RHKK(Ac)AMC was used for HDAC1, HDAC2, HDAC3, HDAC6 and HDAC10; the substrate used for HDAC8 was RHK(Ac)K(Ac)AMC. Activity against the class IIa HDACs (HDAC4, 5, 7, 9) and HDAC11 was determined using a class IIa-specific substrate, BOC-Lys(trifluoroacetyl)-AMC (“Trifluoroacetyl Lysine”; see Lahm et al, 2007, PNAS, 104, 17335-17340). All assays were based on the AMC-labeled substrate and developer combination.
(§2) The protocol involved a two-step reaction: first, the substrate with the acetylated lysine side chain is incubated with a sample containing HDAC activity, to produce the deacetylated products, which are then digested in the second step by the addition of developer to produce the fluorescent signal proportional to the amount of deacetylated substrates.
Human HDAC10 (a.a. 1-481), GenBank Accession No. NM_032019 with N-terminal GST tag and C-terminal His tag, MW=78 kDa, expressed in baculovirus expression system.
(§3) Assay Buffer: 50 mM Tris-HCl, pH8.0, 137 mM NaCl, 2.7 mM KCl, 1 mM MgC2. Before use, 1 mg/mL BSA and DMSO are added.
HDAC10: 12 ng/ul HDAC10 and 50 μM HDAC substrate are in the reaction buffer with 1% DMSO final. Incubate for 2 hours at 30° C.
(§4) Stage 1: Deacetylation of substrate by incubation of HDAC enzymes with compounds
(§5) Stage 2: Development by addition of Developer to digest the deacetylated substrate, and generate the fluorescent colour; Detection: 360/460 Ex/Em

Human HDAC2 = target: T5, Human HDAC2 (Homo sapiens, UniProt Q92769); test: HDAC2 biochemical assay, AMC-labeled peptide substrate; settings: read-out: HDAC Isoform IC50 (nM) 2
T5 construct: full length with C-terminal GST-tag; GST (C); host or cells: baculovirus expression system
Description: as §1, §2
Human HDAC2 (GenBank Accession No. NM_001527), full length with C-terminal GST-tag, MW=82.9 kDa, expressed inbaculovirus expression system.
as §3
HDAC2: 0.07 ng/ul HDAC2 and 50 μM HDAC substrate are in the reaction buffer with 1% DMSO final. Incubate for 1 hour at 30° C.
as §4, §5

T3 sequence (Q13547 whole entry, canonical isoform): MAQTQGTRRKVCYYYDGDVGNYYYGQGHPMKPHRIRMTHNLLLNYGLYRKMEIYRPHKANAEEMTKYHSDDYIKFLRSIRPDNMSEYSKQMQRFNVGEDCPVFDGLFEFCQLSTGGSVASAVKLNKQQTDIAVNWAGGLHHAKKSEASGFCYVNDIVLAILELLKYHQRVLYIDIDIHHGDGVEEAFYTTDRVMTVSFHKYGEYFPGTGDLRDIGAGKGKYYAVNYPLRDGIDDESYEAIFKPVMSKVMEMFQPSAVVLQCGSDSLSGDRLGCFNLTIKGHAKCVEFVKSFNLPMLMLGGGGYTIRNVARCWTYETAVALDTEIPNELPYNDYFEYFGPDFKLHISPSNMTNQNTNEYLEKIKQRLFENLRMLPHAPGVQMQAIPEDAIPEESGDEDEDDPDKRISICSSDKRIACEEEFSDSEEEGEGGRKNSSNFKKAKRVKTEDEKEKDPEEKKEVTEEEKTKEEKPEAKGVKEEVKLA
T5 sequence (Q92769 whole entry, canonical isoform): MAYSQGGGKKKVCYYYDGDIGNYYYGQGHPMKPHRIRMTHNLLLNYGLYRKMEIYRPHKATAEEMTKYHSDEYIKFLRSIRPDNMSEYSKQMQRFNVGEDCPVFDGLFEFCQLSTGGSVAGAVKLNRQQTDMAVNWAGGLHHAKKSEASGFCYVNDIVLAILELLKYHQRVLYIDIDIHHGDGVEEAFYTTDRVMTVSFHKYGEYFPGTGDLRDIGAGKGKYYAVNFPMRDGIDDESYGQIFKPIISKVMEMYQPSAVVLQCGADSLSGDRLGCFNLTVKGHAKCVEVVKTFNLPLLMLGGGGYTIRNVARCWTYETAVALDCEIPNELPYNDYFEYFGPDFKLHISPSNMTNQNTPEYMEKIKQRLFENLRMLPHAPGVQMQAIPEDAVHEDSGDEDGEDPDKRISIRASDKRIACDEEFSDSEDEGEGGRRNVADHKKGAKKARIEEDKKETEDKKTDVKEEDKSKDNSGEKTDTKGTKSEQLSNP
T1 sequence (Q9UKV0 604-1066 isoform Q9UKV0-5): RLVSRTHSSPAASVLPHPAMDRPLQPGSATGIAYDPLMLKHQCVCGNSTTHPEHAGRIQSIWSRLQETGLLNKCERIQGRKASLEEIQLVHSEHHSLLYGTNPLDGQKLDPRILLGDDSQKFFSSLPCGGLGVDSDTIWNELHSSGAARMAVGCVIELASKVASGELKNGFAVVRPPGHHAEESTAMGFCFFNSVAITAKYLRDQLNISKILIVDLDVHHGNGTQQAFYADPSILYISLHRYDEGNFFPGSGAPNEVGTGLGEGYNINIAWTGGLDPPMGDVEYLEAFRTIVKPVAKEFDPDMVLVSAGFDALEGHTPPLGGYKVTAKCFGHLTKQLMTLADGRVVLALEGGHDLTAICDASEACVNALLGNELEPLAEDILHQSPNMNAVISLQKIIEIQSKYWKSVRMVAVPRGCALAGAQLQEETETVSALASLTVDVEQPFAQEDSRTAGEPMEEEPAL

Compound | IC50 (Human HDAC9) [nM] | IC50 (Human HDAC7) [nM] | IC50 (Human HDAC1) [nM] | IC50 (Human HDAC10) [nM] | IC50 (Human HDAC2) [nM]
O=C(c1ccc(N(Cc2ccc(-c3noc(C(F)(F)F)n3)s2)c2cnccn2)nn1)N1CCC1 [Example FF, 6-(Azetidine-1-carbonyl)-N-(pyrazin-2-yl)-N-({5-[5-(trifluoromethyl)-1,2,4-oxadiazol-3-yl]thiophen-2-yl}methyl)pyridazin-3-amine] | ≤ 1000 | ≤ 500 | ≤ 10000 | > 10000 | > 10000
FC(F)(F)c1nc(-c2ccc(CN(c3cnccn3)c3ncccn3)s2)no1 [Example AS, N-(Pyrimidin-2-yl)-N-({5-[5-(trifluoromethyl)-1,2,4-oxadiazol-3-yl]thiophen-2-yl}methyl)pyrazin-2-amine] | ≤ 10000 | ≤ 10000 | > 10000 | > 10000 | > 10000
Cc1cnc(N(Cc2ccc(-c3noc(C(F)(F)F)n3)s2)c2cnccn2)cn1 [Example BH, 5-Methyl-N-(pyrazin-2-yl)-N-({5-[5-(trifluoromethyl)-1,2,4-oxadiazol-3-yl]thiophen-2-yl}methyl)pyrazin-2-amine] | ≤ 10000 | ≤ 1000 | ≤ 10000 | > 10000 | > 10000
O=C(c1ccc(N(Cc2ccc(-c3noc(C(F)(F)F)n3)s2)c2cnccn2)nn1)N1CCCC1 [Example FI, N-(Pyrazin-2-yl)-6-(pyrrolidine-1-carbonyl)-N-({5-[5-(trifluoromethyl)-1,2,4-oxadiazol-3-yl]thiophen-2-yl}methyl)pyridazin-3-amine] | ≤ 1000 | ≤ 500 | ≤ 10000 | > 10000 | > 10000
O=C(c1ccc(N(Cc2ccc(-c3noc(C(F)(F)F)n3)s2)c2cnccn2)nn1)N1CCOCC1 [Example DS, 6-(Morpholine-4-carbonyl)-N-(pyrazin-2-yl)-N-({5-[5-(trifluoromethyl)-1,2,4-oxadiazol-3-yl]thiophen-2-yl}methyl)pyridazin-3-amine] | ≤ 1000 | ≤ 500 | > 10000 | > 10000 | > 10000
FC(F)(F)c1cncc(N(Cc2ccc(-c3noc(C(F)(F)F)n3)s2)c2cnccn2)n1 [Example BR, N-(Pyrazin-2-yl)-6-(trifluoromethyl)-N-({5-[5-(trifluoromethyl)-1,2,4-oxadiazol-3-yl]thiophen-2-yl}methyl)pyrazin-2-amine] | ≤ 10000 | ≤ 10000 | > 10000 | > 10000 | > 10000
O=C(O)c1cnnc(N(Cc2ccc(-c3noc(C(F)(F)F)n3)s2)c2cnccn2)c1 [Example DW, 6-[(Pyrazin-2-yl)({5-[5-(trifluoromethyl)-1,2,4-oxadiazol-3-yl]thiophen-2-yl}methyl)amino]pyridazine-4-carboxylic acid] | ≤ 10000 | ≤ 10000 | > 10000 | > 10000 | > 10000
O=C(c1ccc(N(Cc2ccc(-c3noc(C(F)(F)F)n3)s2)c2cnccn2)nn1)N1CC(O)(C(F)(F)F)C1 [Example FK, 1-{6-[(Pyrazin-2-yl)({5-[5-(trifluoromethyl)-1,2,4-oxadiazol-3-yl]thiophen-2-yl}methyl)amino]pyridazine-3-carbonyl}-3-(trifluoromethyl)azetidin-3-ol] | ≤ 500 | ≤ 500 | > 10000 | > 10000 | > 10000
FC(F)(F)c1nc(-c2ccc(CN(c3cnccn3)c3cnccn3)s2)no1 [Example BA, N-(Pyrazin-2-yl)-N-({5-[5-(trifluoromethyl)-1,2,4-oxadiazol-3-yl]thiophen-2-yl}methyl)pyrazin-2-amine] | ≤ 10000 | ≤ 1000 | > 10000 | > 10000 | > 10000

Next, values leading:

IC50 (Human HDAC9) [nM] | IC50 (Human HDAC7) [nM] | IC50 (Human HDAC1) [nM] | IC50 (Human HDAC10) [nM] | IC50 (Human HDAC2) [nM] | Compound
≤ 10000 | ≤ 1000 | > 10000 | > 10000 | > 10000 | OC1(c2cnnc(N(Cc3ccc(-c4noc(C(F)(F)F)n4)s3)c3cnccn3)c2)COC1 [Example GW, 3-{6-[(Pyrazin-2-yl)({5-[5-(trifluoromethyl)-1,2,4-oxadiazol-3-yl]thiophen-2-yl}methyl)amino]pyridazin-4-yl}oxetan-3-ol]
≤ 10000 | ≤ 10000 | > 10000 | > 10000 | > 10000 | CC(F)(F)c1cnnc(N(Cc2ccc(-c3noc(C(F)(F)F)n3)s2)c2cnccn2)c1 [Example GU, 5-(1,1-Difluoroethyl)-N-(pyrazin-2-yl)-N-({5-[5-(trifluoromethyl)-1,2,4-oxadiazol-3-yl]thiophen-2-yl}methyl)pyridazin-3-amine]
≤ 10000 | ≤ 10000 | > 10000 | > 10000 | > 10000 | C[C@H]1CCCN1C(=O)c1cnnc(N(Cc2ccc(-c3noc(C(F)(F)F)n3)s2)c2cnccn2)c1 [Example GY, 5-[(2S)-2-Methylpyrrolidine-1-carbonyl]-N-(pyrazin-2-yl)-N-({5-[5-(trifluoromethyl)-1,2,4-oxadiazol-3-yl]thiophen-2-yl}methyl)pyridazin-3-amine]
≤ 10000 | ≤ 10000 | > 10000 | > 10000 | > 10000 | O=C(c1cnnc(N(Cc2ccc(-c3noc(C(F)(F)F)n3)s2)c2cnccn2)c1)N1CC2CCC(C1)O2 [Example GA, 5-{8-Oxa-3-azabicyclo[3.2.1]octane-3-carbonyl}-N-(pyrazin-2-yl)-N-({5-[5-(trifluoromethyl)-1,2,4-oxadiazol-3-yl]thiophen-2-yl}methyl)pyridazin-3-amine]
≤ 10000 | ≤ 1000 | > 10000 | > 10000 | > 10000 | CN(C(=O)c1cnnc(N(Cc2ccc(-c3noc(C(F)(F)F)n3)s2)c2cnccn2)c1)S(C)(=O)=O [Example GE, N-Methanesulfonyl-N-methyl-6-[(pyrazin-2-yl)({5-[5-(trifluoromethyl)-1,2,4-oxadiazol-3-yl]thiophen-2-yl}methyl)amino]pyridazine-4-carboxamide]
